Measured values from ChEMBL document CHEMBL5518248, “Design, Synthesis, and Biological Evaluation of Novel Arylomycins against Multidrug-Resistant Gram-Negative Bacteria” (J Med Chem, 2024).

Legend:
Type in all cases: functional
Settings in all cases: time 18-20 hrs
[1] = tested on: Escherichia coli; test: Antibacterial activity against Escherichia coli ATCC 35218 assessed as inhibition of bacterial growth measured after 18 to 20 hrs by broth microdilution method
[2] = tested on: Escherichia coli; test: Antibacterial activity against Escherichia coli 14-2 assessed as inhibition of bacterial growth measured after 18 to 20 hrs by broth microdilution method
[3] = tested on: Escherichia coli; test: Antibacterial activity against Escherichia coli 14-4 assessed as inhibition of bacterial growth measured after 18 to 20 hrs by broth microdilution method
[4] = tested on: Klebsiella pneumoniae; test: Antibacterial activity against Klebsiella pneumoniae 15-1 assessed as inhibition of bacterial growth measured after 18 to 20 hrs by broth microdilution method
[5] = tested on: Klebsiella pneumoniae; test: Antibacterial activity against Klebsiella pneumoniae 15-4 assessed as inhibition of bacterial growth measured after 18 to 20 hrs by broth microdilution method
[6] = tested on: Klebsiella pneumoniae; test: Antibacterial activity against Klebsiella pneumoniae 15-5 assessed as inhibition of bacterial growth measured after 18 to 20 hrs by broth microdilution method
[7] = tested on: Acinetobacter baumannii; test: Antibacterial activity against Acinetobacter baumannii 17-2 assessed as inhibition of bacterial growth measured after 18 to 20 hrs by broth microdilution method
[8] = tested on: Acinetobacter baumannii; test: Antibacterial activity against Acinetobacter baumannii 17-8 assessed as inhibition of bacterial growth measured after 18 to 20 hrs by broth microdilution method
[9] = tested on: Pseudomonas aeruginosa; test: Antibacterial activity against Pseudomonas aeruginosa 17-1 assessed as inhibition of bacterial growth measured after 18 to 20 hrs by broth microdilution method
[10] = tested on: Pseudomonas aeruginosa; test: Antibacterial activity against Pseudomonas aeruginosa 19-5 assessed as inhibition of bacterial growth measured after 18 to 20 hrs by broth microdilution method

Structure (SMILES) | MIC [1] | MIC [2] | MIC [3] | MIC [4] | MIC [5] | MIC [6] | MIC [7] | MIC [8] | MIC [9] | MIC [10]
CSSCc1ccc(-c2ncc(C(=O)N[C@@H](CCN)C(=O)N(C)[C@@H]3C(=O)N[C@@H](C)C(=O)N[C@H](C(=O)NCC#N)Cc4ccc(OCCN)c(c4)-c4cc3ccc4OCCN)c(C)n2)cc1.O=C(O)C(F)(F)F.O=C(O)C(F)(F)F.O=C(O)C(F)(F)F.O=C(O)C(F)(F)F | 0.06 µg/mL | 0.25 µg/mL | 0.5 µg/mL | 0.25 µg/mL | 0.5 µg/mL | 0.5 µg/mL | 4 µg/mL | 1 µg/mL | 64 µg/mL | 64 µg/mL
C[C@@H]1NC(=O)[C@@H](N(C)C(=O)[C@H](CCN)NC(=O)c2cnc(-c3ccc(CSSC(C)(C)C)cc3)cc2Cl)c2ccc(OCCN)c(c2)-c2cc(ccc2OCCN)C[C@@H](C(=O)NCC#N)NC1=O.O=C(O)C(F)(F)F.O=C(O)C(F)(F)F.O=C(O)C(F)(F)F.O=C(O)C(F)(F)F | ≤ 0.03 µg/mL | 0.25 µg/mL | 0.125 µg/mL | 0.25 µg/mL | 0.5 µg/mL | 0.125 µg/mL | 1 µg/mL | 1 µg/mL | 8 µg/mL | 8 µg/mL
CSSc1ccc(-c2ncc(C(=O)N[C@@H](CCN)C(=O)N(C)[C@@H]3C(=O)N[C@@H](C)C(=O)N[C@H](C(=O)NCC#N)Cc4ccc(OCCN)c(c4)-c4cc3ccc4OCCN)c(C)n2)cc1.O=C(O)C(F)(F)F.O=C(O)C(F)(F)F.O=C(O)C(F)(F)F.O=C(O)C(F)(F)F | 0.25 µg/mL | 0.5 µg/mL | 0.5 µg/mL | 0.5 µg/mL | 1 µg/mL | 1 µg/mL | 4 µg/mL | 2 µg/mL | 16 µg/mL | 16 µg/mL
Cc1nc(-c2ccc(CCCSSC(C)(C)C)cc2)ncc1C(=O)N[C@@H](CCN)C(=O)N(C)[C@@H]1C(=O)N[C@@H](C)C(=O)N[C@H](C(=O)NCC#N)Cc2ccc(OCCN)c(c2)-c2cc1ccc2OCCN.O=C(O)C(F)(F)F.O=C(O)C(F)(F)F.O=C(O)C(F)(F)F.O=C(O)C(F)(F)F | 0.5 µg/mL | 0.5 µg/mL | 0.25 µg/mL | 0.5 µg/mL | 0.5 µg/mL | 0.5 µg/mL | 1 µg/mL | 1 µg/mL | 4 µg/mL | 2 µg/mL
Cc1nc(-c2ccc(CSSC3CCC3)cc2)ncc1C(=O)N[C@@H](CCN)C(=O)N(C)[C@@H]1C(=O)N[C@@H](C)C(=O)N[C@H](C(=O)NCC#N)Cc2ccc(OCCN)c(c2)-c2cc1ccc2OCCN.O=C(O)C(F)(F)F.O=C(O)C(F)(F)F.O=C(O)C(F)(F)F.O=C(O)C(F)(F)F | ≤ 0.03 µg/mL | 0.125 µg/mL | 0.125 µg/mL | 0.125 µg/mL | 0.25 µg/mL | 0.25 µg/mL | 1 µg/mL | 0.5 µg/mL | 8 µg/mL | 4 µg/mL
Cc1nc(-c2ccc(CCSSC(C)(C)C)cc2)ncc1C(=O)N[C@@H](CCN)C(=O)N(C)[C@@H]1C(=O)N[C@@H](C)C(=O)N[C@H](C(=O)NCC#N)Cc2ccc(OCCN)c(c2)-c2cc1ccc2OCCN.O=C(O)C(F)(F)F.O=C(O)C(F)(F)F.O=C(O)C(F)(F)F.O=C(O)C(F)(F)F | ≤ 0.03 µg/mL | ≤ 0.03 µg/mL | ≤ 0.03 µg/mL | 0.06 µg/mL | 0.125 µg/mL | ≤ 0.03 µg/mL | 0.25 µg/mL | 0.5 µg/mL | 4 µg/mL | 4 µg/mL
CSC(=O)CNC(=O)[C@@H]1Cc2ccc(OCCN)c(c2)-c2cc(ccc2OCCN)[C@H](N(C)C(=O)[C@H](CCN)NC(=O)c2cnc(-c3ccc(C(C)(C)C)cc3)nc2C)C(=O)N[C@@H](C)C(=O)N1.O=C(O)C(F)(F)F.O=C(O)C(F)(F)F.O=C(O)C(F)(F)F.O=C(O)C(F)(F)F | 0.5 µg/mL | 4 µg/mL | 1 µg/mL | 0.25 µg/mL | 1 µg/mL | 0.5 µg/mL | 64 µg/mL | 16 µg/mL | 64 µg/mL | 64 µg/mL
Cc1nc(-c2ccc(C(C)(C)C)cc2)ncc1C(=O)N[C@@H](CCN)C(=O)N(C)[C@@H]1C(=O)N[C@@H](C)C(=O)N[C@H](C(=O)NCP(=O)(O)O)Cc2ccc(OCCN)c(c2)-c2cc1ccc2OCCN.Cl.Cl.Cl.Cl | 0.25 µg/mL | 1 µg/mL | 0.25 µg/mL | 0.5 µg/mL | 0.5 µg/mL | 0.25 µg/mL | 8 µg/mL | 4 µg/mL | 64 µg/mL | 64 µg/mL
CSSC(C)(C)c1ccc(-c2ncc(C(=O)N[C@@H](CCN)C(=O)N(C)[C@@H]3C(=O)N[C@@H](C)C(=O)N[C@H](C(=O)O)Cc4ccc(OCCN)c(c4)-c4cc3ccc4OCCN)c(C)n2)cc1.O=C(O)C(F)(F)F.O=C(O)C(F)(F)F.O=C(O)C(F)(F)F.O=C(O)C(F)(F)F | ≤ 0.03 µg/mL | ≤ 0.03 µg/mL | 0.06 µg/mL | ≤ 0.03 µg/mL | 0.25 µg/mL | ≤ 0.03 µg/mL | 4 µg/mL | 2 µg/mL | > 64 µg/mL | > 64 µg/mL
C=CC(=O)N[C@@H]1Cc2ccc(OCCN)c(c2)-c2cc(ccc2OCCN)[C@H](N(C)C(=O)[C@H](CCN)NC(=O)c2cnc(-c3ccc(C(C)(C)C)cc3)nc2C)C(=O)N[C@@H](C)C(=O)N1.O=C(O)C(F)(F)F.O=C(O)C(F)(F)F.O=C(O)C(F)(F)F.O=C(O)C(F)(F)F | 64 µg/mL | 64 µg/mL | 64 µg/mL | 32 µg/mL | 64 µg/mL | 32 µg/mL | > 64 µg/mL | 64 µg/mL | > 64 µg/mL | > 64 µg/mL
Cc1nc(C2CCC3(CC2)CC3)ncc1C(=O)N[C@@H](CCN)C(=O)N(C)[C@@H]1C(=O)N[C@@H](C)C(=O)N[C@H](C(=O)NCC#N)Cc2ccc(OCCN)c(c2)-c2cc1ccc2OCCN.O=C(O)C(F)(F)F.O=C(O)C(F)(F)F.O=C(O)C(F)(F)F.O=C(O)C(F)(F)F | 1 µg/mL | 2 µg/mL | 1 µg/mL | 2 µg/mL | 4 µg/mL | 2 µg/mL | 64 µg/mL | 8 µg/mL | > 64 µg/mL | > 64 µg/mL
Cc1nc(-c2ccc(C(C)(C)C)cc2)ncc1C(=O)N[C@@H](CCN)C(=O)N(C)[C@H]1Cc2ccc(OCCN)c(c2)-c2cc(ccc2OCCN)C[C@@H](C(=O)NCC#N)NC(=O)[C@H](C)NC1=O.Cl.Cl.Cl.Cl | 61 µg/mL | 64 µg/mL | 64 µg/mL | > 64 µg/mL | > 64 µg/mL | > 64 µg/mL | > 64 µg/mL | > 64 µg/mL | > 64 µg/mL | > 64 µg/mL
Cc1nc(-c2ccc(SSC(C)C)cc2)ncc1C(=O)N[C@@H](CCN)C(=O)N(C)[C@@H]1C(=O)N[C@@H](C)C(=O)N[C@H](C(=O)NCC#N)Cc2ccc(OCCN)c(c2)-c2cc1ccc2OCCN.O=C(O)C(F)(F)F.O=C(O)C(F)(F)F.O=C(O)C(F)(F)F.O=C(O)C(F)(F)F | ≤ 0.03 µg/mL | 0.06 µg/mL | ≤ 0.03 µg/mL | 0.06 µg/mL | 0.06 µg/mL | 0.06 µg/mL | 0.5 µg/mL | 0.25 µg/mL | 4 µg/mL | 4 µg/mL
CCCCCSSCc1ccc(-c2ncc(C(=O)N[C@@H](CCN)C(=O)N(C)[C@@H]3C(=O)N[C@@H](C)C(=O)N[C@H](C(=O)NCC#N)Cc4ccc(OCCN)c(c4)-c4cc3ccc4OCCN)c(C)n2)cc1.O=C(O)C(F)(F)F.O=C(O)C(F)(F)F.O=C(O)C(F)(F)F.O=C(O)C(F)(F)F | ≤ 0.03 µg/mL | 0.06 µg/mL | ≤ 0.03 µg/mL | 0.25 µg/mL | 0.25 µg/mL | 0.25 µg/mL | 0.5 µg/mL | 0.5 µg/mL | 4 µg/mL | 2 µg/mL
